Molecules are shown by their SMILES. Like-named read-outs stand apart in the source and are kept apart here.

Our source for the IC50 values is patent US11981658B2, “Substituted aminopyridine compounds as EGFR inhibitors” (YUHAN CORPORATION, priority 2021, dated 2024).

The target of experiment [1] is EGFR L858R/C797S (Homo sapiens, UniProt P00533, C797S/L858R). Description: Biochemical EGFR kinase inhibition assay (Lance Ultra TR-FRET), double mutant L858R/C797S. An outline of the steps: (§1)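 Kinase activity is measured by TR-FRET phosphopeptide detection. Compounds span 0.003 μM to 10 μM; the 1 h reaction at room temperature is quenched with EDTA, then labelled antibody (2 nM) is incubated 60 min before reading.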
Sequence of EGFR L858R/C797S (P00533 25-1210 C797S/L858R): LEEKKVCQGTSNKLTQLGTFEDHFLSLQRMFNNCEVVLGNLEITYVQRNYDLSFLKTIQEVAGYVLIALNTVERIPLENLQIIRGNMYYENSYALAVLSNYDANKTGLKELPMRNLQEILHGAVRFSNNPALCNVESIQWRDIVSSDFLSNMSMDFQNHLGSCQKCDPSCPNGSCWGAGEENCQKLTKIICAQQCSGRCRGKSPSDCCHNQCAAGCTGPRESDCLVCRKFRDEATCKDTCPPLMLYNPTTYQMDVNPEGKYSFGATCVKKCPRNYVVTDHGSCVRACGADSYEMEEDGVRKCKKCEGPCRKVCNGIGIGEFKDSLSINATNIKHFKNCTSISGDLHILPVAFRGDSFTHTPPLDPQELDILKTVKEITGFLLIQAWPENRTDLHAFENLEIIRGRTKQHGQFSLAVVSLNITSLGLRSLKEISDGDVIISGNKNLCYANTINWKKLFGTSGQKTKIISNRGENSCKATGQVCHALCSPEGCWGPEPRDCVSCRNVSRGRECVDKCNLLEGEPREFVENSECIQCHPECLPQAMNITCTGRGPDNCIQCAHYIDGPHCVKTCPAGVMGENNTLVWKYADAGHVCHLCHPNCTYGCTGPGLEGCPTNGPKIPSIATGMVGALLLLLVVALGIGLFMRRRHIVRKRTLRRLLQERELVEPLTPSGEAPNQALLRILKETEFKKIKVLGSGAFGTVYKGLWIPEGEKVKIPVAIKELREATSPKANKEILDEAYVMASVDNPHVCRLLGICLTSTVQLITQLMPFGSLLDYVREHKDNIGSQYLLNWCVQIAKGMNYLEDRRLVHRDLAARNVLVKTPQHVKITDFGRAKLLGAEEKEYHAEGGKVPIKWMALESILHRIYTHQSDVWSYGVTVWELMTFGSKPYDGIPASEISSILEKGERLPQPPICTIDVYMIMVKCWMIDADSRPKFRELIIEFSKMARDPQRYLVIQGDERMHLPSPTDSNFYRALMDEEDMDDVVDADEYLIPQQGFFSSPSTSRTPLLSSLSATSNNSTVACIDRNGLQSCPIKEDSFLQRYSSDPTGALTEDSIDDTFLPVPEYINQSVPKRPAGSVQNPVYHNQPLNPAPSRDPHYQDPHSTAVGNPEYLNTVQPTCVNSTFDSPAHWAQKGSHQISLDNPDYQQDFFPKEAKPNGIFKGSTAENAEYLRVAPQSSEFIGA
A general note: TR-FRET usually uses a lanthanide donor and a delayed reading to cut background.

Experiment [2] addresses EGFR Del19/C797S (Homo sapiens, UniProt P00533, C797S/DEL746-750). Description: Biochemical EGFR kinase inhibition assay (Lance Ultra TR-FRET), double mutant del19/C797S. A digest of the protocol:
as §1

For experiment [3], the target named is EGFR wildtype (WT) (Homo sapiens, UniProt P00533). Description: Biochemical EGFR kinase inhibition assay (Lance Ultra TR-FRET), wildtype. An outline of the steps:
as §1

Experiment [4] addresses EGFR L858R/T790M/C797S (Homo sapiens, UniProt P00533, C797S/L858R/T790M). Nature of the experiment: Biochemical EGFR kinase inhibition assay (Lance Ultra TR-FRET), triple mutant L858R/T790M/C797S. A digest of the protocol: as §1
In experiment [5] the target is EGFR Del19/T790M/C797S (Homo sapiens, UniProt P00533, C797S/DEL746-750/T790M). Description: Biochemical EGFR kinase inhibition assay (Lance Ultra TR-FRET), triple mutant del19/T790M/C797S. An outline of the steps: as §1
Sequence of EGFR Del19/T790M/C797S (P00533 with tags, fused parts or gaps DEL746-750/T790M/C797S): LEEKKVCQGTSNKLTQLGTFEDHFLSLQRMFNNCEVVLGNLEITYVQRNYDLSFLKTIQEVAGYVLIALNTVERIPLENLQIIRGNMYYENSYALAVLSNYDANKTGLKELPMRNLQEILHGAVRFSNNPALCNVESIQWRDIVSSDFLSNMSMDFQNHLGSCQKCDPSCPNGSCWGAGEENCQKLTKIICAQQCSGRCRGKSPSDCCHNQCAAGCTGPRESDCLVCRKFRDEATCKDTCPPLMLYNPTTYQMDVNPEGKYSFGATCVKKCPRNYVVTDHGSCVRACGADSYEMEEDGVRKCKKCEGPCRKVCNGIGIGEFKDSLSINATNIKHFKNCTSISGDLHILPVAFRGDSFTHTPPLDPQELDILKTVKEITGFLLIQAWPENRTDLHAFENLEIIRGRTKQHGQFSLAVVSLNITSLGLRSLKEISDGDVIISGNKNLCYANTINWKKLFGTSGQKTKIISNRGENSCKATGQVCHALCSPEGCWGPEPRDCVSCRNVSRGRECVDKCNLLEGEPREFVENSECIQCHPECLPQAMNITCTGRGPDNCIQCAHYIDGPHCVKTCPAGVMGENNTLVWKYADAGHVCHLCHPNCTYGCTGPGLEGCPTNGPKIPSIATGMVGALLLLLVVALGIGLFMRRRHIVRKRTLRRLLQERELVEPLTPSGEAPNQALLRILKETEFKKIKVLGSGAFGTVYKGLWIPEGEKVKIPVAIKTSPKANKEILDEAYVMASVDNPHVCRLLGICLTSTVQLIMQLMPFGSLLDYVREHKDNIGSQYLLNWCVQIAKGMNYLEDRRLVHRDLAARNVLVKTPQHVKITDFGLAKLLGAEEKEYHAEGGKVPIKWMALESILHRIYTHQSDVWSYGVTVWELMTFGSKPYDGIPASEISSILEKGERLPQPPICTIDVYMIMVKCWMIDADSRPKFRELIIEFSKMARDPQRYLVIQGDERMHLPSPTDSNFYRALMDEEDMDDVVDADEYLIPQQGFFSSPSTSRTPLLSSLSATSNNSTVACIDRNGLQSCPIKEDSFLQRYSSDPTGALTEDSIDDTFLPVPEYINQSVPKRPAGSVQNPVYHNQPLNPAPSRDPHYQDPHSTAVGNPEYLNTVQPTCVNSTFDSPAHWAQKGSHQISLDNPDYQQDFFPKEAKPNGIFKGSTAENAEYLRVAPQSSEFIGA
[6] abbreviates: ATP at Km, read-out: IC50 L858R/C797S (nM), Km ATP.
Where [7] appears, read: IC50 L858R/C797S (nM), 100 μM ATP.
Setting [8] is: ATP at Km, read-out: IC50 Del19/C797S (nM), Km ATP.
Where [9] appears, read: IC50 Del19/C797S (nM), 100 μM ATP.
Setting [10] is: ATP at Km, read-out: IC50 WT (nM), Km ATP.
Where [11] appears, read: ATP at Km, read-out: IC50 L858R/T790M/C797S (nM), Km ATP.
Where [12] appears, read: IC50 L858R/T790M/C797S (nM), 100 μM ATP.
The mark [13] stands for this setting: ATP at Km, read-out: IC50 Del19/T790M/C797S (nM), Km ATP.
[14] abbreviates: IC50 Del19/T790M/C797S (nM), 100 μM ATP.
Setting [15] is: Km ATP, read-out: IC50 L858R/C797S (nM), Km ATP.
[16] abbreviates: Km ATP, read-out: IC50 Del19/C797S (nM), Km ATP.
[17] abbreviates: Km ATP, read-out: IC50 WT (nM), Km ATP.
The mark [18] stands for this setting: Km ATP, read-out: IC50 L858R/T790M/C797S (nM), Km ATP.
The mark [19] stands for this setting: Km ATP, read-out: IC50 Del19/T790M/C797S (nM), Km ATP.

Sequence of EGFR L858R/T790M/C797S (P00533 25-1210 T790M/C797S/L858R): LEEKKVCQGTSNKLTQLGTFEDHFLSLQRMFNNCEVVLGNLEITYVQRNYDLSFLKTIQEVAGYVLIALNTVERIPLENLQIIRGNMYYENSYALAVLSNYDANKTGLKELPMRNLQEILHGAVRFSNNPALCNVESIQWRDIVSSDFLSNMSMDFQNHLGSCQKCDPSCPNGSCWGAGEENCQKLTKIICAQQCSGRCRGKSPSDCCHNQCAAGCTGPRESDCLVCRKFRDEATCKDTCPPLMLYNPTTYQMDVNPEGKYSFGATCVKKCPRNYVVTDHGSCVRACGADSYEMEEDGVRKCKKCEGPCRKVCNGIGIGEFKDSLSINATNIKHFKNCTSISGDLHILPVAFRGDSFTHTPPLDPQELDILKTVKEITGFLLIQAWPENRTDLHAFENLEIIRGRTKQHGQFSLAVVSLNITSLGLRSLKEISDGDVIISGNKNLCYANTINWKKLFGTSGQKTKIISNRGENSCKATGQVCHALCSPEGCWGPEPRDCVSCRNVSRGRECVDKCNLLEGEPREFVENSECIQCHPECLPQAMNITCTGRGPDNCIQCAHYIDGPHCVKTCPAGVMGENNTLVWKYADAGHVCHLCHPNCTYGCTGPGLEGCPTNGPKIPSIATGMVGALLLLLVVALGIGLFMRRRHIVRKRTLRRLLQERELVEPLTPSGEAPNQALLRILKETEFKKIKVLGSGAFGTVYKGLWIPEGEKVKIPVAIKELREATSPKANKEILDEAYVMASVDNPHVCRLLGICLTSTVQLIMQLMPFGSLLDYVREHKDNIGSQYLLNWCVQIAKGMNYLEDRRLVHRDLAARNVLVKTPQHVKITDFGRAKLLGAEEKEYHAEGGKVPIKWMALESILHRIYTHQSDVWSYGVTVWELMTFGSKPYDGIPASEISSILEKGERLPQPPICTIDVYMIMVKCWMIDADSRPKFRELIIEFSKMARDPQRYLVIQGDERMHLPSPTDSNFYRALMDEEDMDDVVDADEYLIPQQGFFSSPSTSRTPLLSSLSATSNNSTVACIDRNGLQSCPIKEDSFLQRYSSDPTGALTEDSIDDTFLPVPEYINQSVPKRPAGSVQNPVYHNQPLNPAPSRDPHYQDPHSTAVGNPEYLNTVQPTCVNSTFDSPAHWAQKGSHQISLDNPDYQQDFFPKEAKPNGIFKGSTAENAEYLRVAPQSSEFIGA
Sequence of EGFR wildtype (WT) (P00533 25-1210): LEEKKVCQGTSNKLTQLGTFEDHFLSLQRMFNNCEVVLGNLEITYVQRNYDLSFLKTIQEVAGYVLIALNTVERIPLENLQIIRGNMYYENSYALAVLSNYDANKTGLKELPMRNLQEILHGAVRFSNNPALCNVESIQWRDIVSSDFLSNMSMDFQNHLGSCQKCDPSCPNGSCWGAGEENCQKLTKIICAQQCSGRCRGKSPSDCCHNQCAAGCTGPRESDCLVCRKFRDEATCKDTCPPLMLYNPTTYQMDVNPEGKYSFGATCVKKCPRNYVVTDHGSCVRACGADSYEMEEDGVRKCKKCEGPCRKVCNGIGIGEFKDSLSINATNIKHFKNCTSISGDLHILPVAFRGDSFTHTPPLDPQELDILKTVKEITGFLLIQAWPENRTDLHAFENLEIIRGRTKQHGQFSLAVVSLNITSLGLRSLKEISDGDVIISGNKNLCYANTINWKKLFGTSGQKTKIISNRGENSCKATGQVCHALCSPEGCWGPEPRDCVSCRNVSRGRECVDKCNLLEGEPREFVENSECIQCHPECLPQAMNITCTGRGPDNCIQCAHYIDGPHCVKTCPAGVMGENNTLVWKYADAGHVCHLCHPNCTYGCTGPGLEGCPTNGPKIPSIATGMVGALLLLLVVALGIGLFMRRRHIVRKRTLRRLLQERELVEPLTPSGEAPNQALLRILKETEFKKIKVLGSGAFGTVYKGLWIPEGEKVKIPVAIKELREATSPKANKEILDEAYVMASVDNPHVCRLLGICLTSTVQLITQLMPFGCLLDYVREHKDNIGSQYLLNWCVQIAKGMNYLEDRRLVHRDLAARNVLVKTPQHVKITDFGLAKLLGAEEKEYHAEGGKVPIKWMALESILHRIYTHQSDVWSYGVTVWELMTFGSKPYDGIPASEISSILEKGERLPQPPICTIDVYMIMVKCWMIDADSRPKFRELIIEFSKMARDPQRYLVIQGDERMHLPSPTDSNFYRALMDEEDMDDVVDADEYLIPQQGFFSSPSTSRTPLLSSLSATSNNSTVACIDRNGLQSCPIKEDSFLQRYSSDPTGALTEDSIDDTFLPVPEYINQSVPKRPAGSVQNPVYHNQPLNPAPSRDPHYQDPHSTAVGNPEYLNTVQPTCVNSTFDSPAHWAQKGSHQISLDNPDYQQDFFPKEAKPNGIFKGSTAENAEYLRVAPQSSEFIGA

In the case of `O=S(=O)(C1CC1)n1cc(-c2nccc(Nc3cc(N[C@H]4CC[C@@H](O)CC4)c(C#Cc4ncc(CN5CCOCC5)cn4)cn3)n2)cn1` [Example 194, (1s,4s)-4-((2-((2-(1-(Cyclopropylsulfonyl)-1H-pyrazol-4-yl)pyrimidin-4-yl)amino)-5-((5-(morpholinomethyl)pyrimidin-2-yl)ethynyl)pyridin-4-yl)amino)cyclohexan-1-ol], the IC50 in experiment [1] (setting [6]) was 3.4 nM; in experiment [1] (setting [7]) it was 169 nM; in experiment [2] (setting [8]), 2.2 nM; in experiment [2] (setting [9]), 3.3 nM; in experiment [3] (setting [10]), 26.1 nM; in experiment [3] (IC50 WT (nM), 100 μM ATP), > 10000 nM. Further, the IC50 worked out at 0.2 nM in experiment [4] (setting [11]), 0.7 nM in experiment [4] (setting [12]), 0.5 nM in experiment [5] (setting [13]) and 0.5 nM in experiment [5] (setting [14]).
For the molecule `O=S(=O)(C1CC1)n1cc(-c2nccc(Nc3cc(N[C@@H]4CCC[C@H](O)C4)c(C#Cc4cnn(CCF)c4)cn3)n2)cn1` [Example 46, (1S,3R)-3-((2-((2-(1-(Cyclopropylsulfonyl)-1H-pyrazol-4-yl)pyrimidin-4-yl)amino)-5-((1-(2-fluoroethyl)-1H-pyrazol-4-yl)ethynyl)pyridin-4-yl)amino)cyclohexan-1-ol], the IC50 is 59.3 nM in experiment [1] (setting [7]); 8.6 nM in experiment [2] (setting [9]); > 10000 nM in experiment [3] (IC50 WT (nM), 100 μM ATP); 2.9 nM in experiment [4] (setting [12]); 1.3 nM in experiment [5] (setting [14]).
As to `CN1CCC(C#Cc2cnc(Nc3ccnc(-c4cnn(S(=O)(=O)C5CC5)c4)n3)cc2N2CCC3(CCO3)CC2)C1` (stereo not drawn) [Example 373, 2-(1-(Cyclopropylsulfonyl)-1H-pyrazol-4-yl)-N-(5-((1-methylpyrrolidin-3-yl)ethynyl)-4-(1-oxa-7-azaspiro[3.5]nonan-7-yl)pyridin-2-yl)pyrimidin-4-amine], the IC50 in experiment [1] (setting [7]) is 41.6 nM; in experiment [1] (setting [15]), 2.5 nM; in experiment [2] (setting [9]), 1.8 nM; in experiment [2] (setting [16]), 1.6 nM; in experiment [3] (IC50 WT (nM), 100 μM ATP) it was 9540 nM; in experiment [3] (setting [17]) it was 10.8 nM. The IC50 in experiment [4] (setting [12]) worked out at 0.4 nM; in experiment [4] (setting [18]), 0.1 nM; in experiment [5] (setting [14]), 0.2 nM; in experiment [5] (setting [19]), 0.2 nM.
Regarding `CC(C)(O)C1CCN(c2cc(Nc3ccnc(-c4cnn(S(=O)(=O)C5CC5)c4)n3)ncc2C#Cc2cnn(C(F)(F)F)c2)CC1` [Example 329, 2-(1-(2-((2-(1-(Cyclopropylsulfonyl)-1H-pyrazol-4-yl)pyrimidin-4-yl)amino)-5-((1-(trifluoromethyl)-1H-pyrazol-4-yl)ethynyl)pyridin-4-yl)piperidin-4-yl)propan-2-ol], the IC50 in experiment [1] (setting [6]) was 47.6 nM; in experiment [1] (setting [7]) it was 125 nM; in experiment [2] (setting [8]), 81.8 nM; in experiment [2] (setting [9]), 1080 nM; in experiment [3] (setting [10]), 700 nM; in experiment [3] (IC50 WT (nM), 100 μM ATP), > 10000 nM. Besides, the IC50 came to 1.7 nM in experiment [4] (setting [11]), 3 nM in experiment [4] (setting [12]), 21.2 nM in experiment [5] (setting [13]) and 5.9 nM in experiment [5] (setting [14]).
Take `CC1(CO)CCN(c2cc(Nc3ccnc(-c4cnn(S(=O)(=O)C5CC5)c4)n3)ncc2C#Cc2ccccn2)CC1` [Example 259, (1-(2-((2-(1-(Cyclopropylsulfonyl)-1H-pyrazol-4-yl)pyrimidin-4-yl)amino)-5-(pyridin-2-ylethynyl)pyridin-4-yl)-4-methylpiperidin-4-yl)methanol]: the IC50 in experiment [1] (setting [6]) was found to be 1.2 nM; in experiment [1] (setting [7]) it was 36 nM; in experiment [2] (setting [8]) it was 0.5 nM; in experiment [2] (setting [9]), 1.2 nM; in experiment [3] (setting [10]) it was 5.3 nM; in experiment [3] (IC50 WT (nM), 100 μM ATP) it was 3400 nM. Also, the IC50 in experiment [4] (setting [11]) came out at 0.3 nM; in experiment [4] (setting [12]), 0.5 nM; in experiment [5] (setting [13]) it was 0.6 nM; in experiment [5] (setting [14]), 0.5 nM.
Consider `CC1(CO)CCN(c2cc(Nc3ccnc(-c4cnn(S(=O)(=O)C5CC5)c4)n3)ncc2C#Cc2cnn3c2CN(CC(F)F)CC3)CC1` [Example 151, (1-(2-((2-(1-(Cyclopropylsulfonyl)-1H-pyrazol-4-yl)pyrimidin-4-yl)amino)-5-((5-(2,2-difluoroethyl)-4,5,6,7-tetrahydropyrazolo[1,5-a]pyrazin-3-yl)ethynyl)pyridin-4-yl)-4-methylpiperidin-4-yl)methanol], for which the IC50 in experiment [1] (setting [6]) was 8.6 nM; in experiment [1] (setting [7]), 57.8 nM; in experiment [2] (setting [8]), 4.2 nM; in experiment [2] (setting [9]) it was 3.5 nM; in experiment [3] (setting [10]), 29.4 nM; in experiment [3] (IC50 WT (nM), 100 μM ATP) it was > 10000 nM. Moreover, the IC50 in experiment [4] (setting [11]) was 1.1 nM; in experiment [4] (setting [12]), 3 nM; in experiment [5] (setting [13]), 2.4 nM; in experiment [5] (setting [14]), 2.6 nM.
As for `O=S(=O)(C1CC1)N1CCC(C#Cc2cnc(Nc3ccnc(-c4cnn(S(=O)(=O)C5CC5)c4)n3)cc2NC2CCC(CO)CC2)C1` (stereo not drawn) [Example 393, ((1s,4s)-4-((2-((2-(1-(Cyclopropylsulfonyl)-1H-pyrazol-4-yl)pyrimidin-4-yl)amino)-5-((1-(cyclopropylsulfonyl)pyrrolidin-3-yl)ethynyl)pyridin-4-yl)amino)cyclohexyl)methanol], the IC50 in experiment [1] (setting [7]) was 50 nM; in experiment [1] (setting [15]) it was 3.4 nM; in experiment [2] (setting [9]) it was 7.9 nM; in experiment [2] (setting [16]), 7.3 nM; in experiment [3] (IC50 WT (nM), 100 μM ATP) it was > 10000 nM; in experiment [3] (setting [17]), 21.3 nM. Further, the IC50 came to 1.2 nM in experiment [4] (setting [12]), 0.4 nM in experiment [4] (setting [18]), 0.6 nM in experiment [5] (setting [14]) and 0.5 nM in experiment [5] (setting [19]).
Regarding `O=S(=O)(C1CC1)n1cc(-c2nccc(Nc3cc(N[C@H]4CC[C@@H](O)CC4)c(C#Cc4cccc(NCCN5CCOCC5)c4)cn3)n2)cn1` [Example 173, (1s,4s)-4-((2-((2-(1-(Cyclopropylsulfonyl)-1H-pyrazol-4-yl)pyrimidin-4-yl)amino)-5-((3-((2-morpholinoethyl)amino)phenyl)ethynyl)pyridin-4-yl)amino)cyclohexan-1-ol], the IC50 in experiment [1] (setting [6]) was 7.8 nM; in experiment [1] (read-out: IC50 L858R/C797S (nM), 100 μM ATP), 100 nM; in experiment [2] (setting [8]), 6.2 nM; in experiment [2] (read-out: IC50 Del19/C797S (nM), 100 μM ATP), 8.5 nM; in experiment [3] (setting [10]), 22.9 nM; in experiment [3] (read-out: IC50 WT (nM), 100 μM ATP), > 10000 nM. For the same molecule, the IC50 came out at 1.3 nM in experiment [4] (setting [11]); 10.5 nM in experiment [4] (read-out: IC50 L858R/T790M/C797S (nM), 100 μM ATP); 2.9 nM in experiment [5] (setting [13]); 9.9 nM in experiment [5] (read-out: IC50 Del19/T790M/C797S (nM), 100 μM ATP).
Take `Cn1cc(C#Cc2cnc(Nc3ccnc(-c4cnn(S(=O)(=O)C5CC5)c4)n3)cc2N2CCCC(F)C2)cn1` (stereo not drawn) [Example 70, 2-(1-(Cyclopropylsulfonyl)-1H-pyrazol-4-yl)-N-(4-(3-fluoropiperidin-1-yl)-5-((1-methyl-1H-pyrazol-4-yl)ethynyl)pyridin-2-yl)pyrimidin-4-amine]: the IC50 in experiment [1] (setting [7]) was 172 nM; in experiment [2] (setting [9]), 24.7 nM; in experiment [3] (IC50 WT (nM), 100 μM ATP) it was > 10000 nM; in experiment [4] (setting [12]), 10.4 nM; in experiment [5] (setting [14]), 1.6 nM.
Take `CN(C)C[C@@H]1CCCN(c2cc(Nc3ccnc(-c4cnn(S(=O)(=O)C5CC5)c4)n3)ncc2C#Cc2cnn(C)c2)C1` [Example 384, (S)-2-(1-(Cyclopropylsulfonyl)-1H-pyrazol-4-yl)-N-(4-(3-((dimethylamino)methyl)piperidin-1-yl)-5-((1-methyl-1H-pyrazol-4-yl)ethynyl)pyridin-2-yl)pyrimidin-4-amine]: the IC50 in experiment [1] (setting [7]) was 49.6 nM; in experiment [2] (setting [9]), 10.9 nM; in experiment [3] (IC50 WT (nM), 100 μM ATP), > 10000 nM; in experiment [4] (setting [12]), 3.1 nM; in experiment [5] (setting [14]), 1.3 nM.
`Cn1cc(C#Cc2cnc(Nc3ccnc(-c4cnn(S(=O)(=O)C5CC5)c4)n3)cc2N[C@@H]2CCC[C@H](O)C2)cn1` [Example 45, (1 S,3R)-3-((2-((2-(1-(Cyclopropylsulfonyl)-1H-pyrazol-4-yl)pyrimidin-4-yl)amino)-5-((1-methyl-1H-pyrazol-4-yl)ethynyl)pyridin-4-yl)amino)cyclohexan-1-ol]: the IC50 was 46.2 nM in experiment [1] (setting [7]); 7.3 nM in experiment [2] (setting [9]); > 10000 nM in experiment [3] (IC50 WT (nM), 100 μM ATP); 2.3 nM in experiment [4] (setting [12]); 0.9 nM in experiment [5] (setting [14]).
